Molecular target: Solute carrier family 22 member 4 (Homo sapiens) (UniProt Q9H015)
Assay: OCTN1 transporter activation by substrate – membrane potential dye, HEK-293 overexpressing cells, dose response (AID 1794816)
Settings: HEK-293 SLC22A4 OE, FLIPR membrane potential dye

Solute carrier family 22 member 4 (Homo sapiens), sequence (Q9H015 whole entry, looked up): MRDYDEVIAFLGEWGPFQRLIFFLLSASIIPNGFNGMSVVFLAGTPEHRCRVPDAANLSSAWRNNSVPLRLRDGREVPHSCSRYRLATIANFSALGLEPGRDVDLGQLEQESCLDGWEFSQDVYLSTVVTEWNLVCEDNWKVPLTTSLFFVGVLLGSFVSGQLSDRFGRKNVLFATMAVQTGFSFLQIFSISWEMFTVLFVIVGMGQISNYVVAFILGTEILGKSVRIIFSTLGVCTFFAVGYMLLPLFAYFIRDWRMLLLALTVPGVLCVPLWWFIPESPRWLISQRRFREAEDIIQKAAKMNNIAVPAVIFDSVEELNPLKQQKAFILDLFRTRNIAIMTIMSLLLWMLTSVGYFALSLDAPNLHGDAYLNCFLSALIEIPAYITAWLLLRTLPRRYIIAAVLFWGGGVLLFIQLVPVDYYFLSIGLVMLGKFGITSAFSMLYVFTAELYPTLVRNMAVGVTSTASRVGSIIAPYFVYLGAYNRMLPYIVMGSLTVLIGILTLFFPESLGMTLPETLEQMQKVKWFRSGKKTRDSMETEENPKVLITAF

EC50: 40 µM
Compound: C[N+](C)(C)[C@@H](Cc1c[nH]c(=S)[nH]1)C(=O)[O-]

Reference: PubChem BioAssay AID1794816
